Key:
CD-1 mice [1] = experiment: 52 °C tail-flick assay, morphine anti-nociception after Hsp90 inhibitor treatment; type: in vivo; settings: 24 h
Experimental: (§1) Pre-injection tail-flick baselines were determined in a 52 °C tail-flick assay with a 10-s cutoff time (method also reported in Ref.[13]). […] No animals were excluded from these studies.

CD-1 mice [2] = experiment: Morphine anti-nociceptive tolerance and tolerance rescue (tail flick); type: in vivo; settings: 3 days twice daily 10 mg/kg morphine s.c.; 1 mg/kg i.v. on day 3, 24 h; 10 mg/kg morphine s.c.; tail flick
Experimental: as §1

physchem = type: physicochemical
Experimental: Distribution coefficient (LogD) was determined by the method of Wilson et al.[30]. Briefly, 5 µL volumes of test compounds diluted in DMSO were added to a mixture of equal volumes of 50 mM phosphate buffer and 1-octanol. The compounds were assayed using a 50 nM concentration in order to limit compound precipitation and to ensure that the assay values were maintained within the dynamic range of the LC–MS/MS instrumentation. Samples were vortex mixed at 800 rpm for 24 h. Subsequent to centrifugation at 14,000 rpm for 30 min, 1 µL of each layer was analyzed by LC–MS/MS. LogD was calculated using the peak areas obtained from each layer.
LC − MS/MS analysis was conducted using an Agilent (Santa Clara, CA) 6460 triple quadrupole mass spectrometer coupled with an Agilent liquid chromatography (LC) system. The LC system consists of a binary pump, degasser, column heater, and autosampler. Chromatographic separation was performed on a Waters Atlantis T3 3 µm 3.0 × 50 mm analytical column using a ballistic gradient of mobile phase consisting of 0.1% formic acid in water (A) and 0.1% formic acid in acetonitrile (B) at a flow rate of 0.75 mL/min. The mobile phase was heated to a temperature of 45 °C.

in vitro [3] = type: in vitro ADME, CD-1 mice; settings: male, CD-1, mouse, microsomes
Experimental: (§2) Metabolic stability of lead compounds was assessed in vitro by the method of Di et al.[32]. Briefly, mouse liver microsomes (Corning Life Sciences, Woburn, MA) were isolated from CD-1 mice (male mice, 8 − 10 weeks of age). Assays were conducted using 0.123 mg/mL protein concentration (total protein concentration in the microsomal solution) and 1.0 μM drug concentration under incubation conditions of 37 °C. Metabolic stability was determined following 0, 5, 15, 30, and 60 min of incubation time. The samples were analyzed by reversed phase LC using a triple quadrupole mass spectrometer. Compound specific transitions of parent ion to product ion were monitored and percent remaining calculated based on peak area of 5 − 60 min time points (relative to time zero). Half-life calculations were determined using the formula t½ = − ln(2)/k, where k (min^−1) is the turnover rate constant (the slope) estimated from a log − linear regression of the percentage compound remaining versus time.
LC − MS/MS analysis was conducted using an Agilent (Santa Clara, CA) 6460 triple quadrupole mass spectrometer coupled with an Agilent liquid chromatography (LC) system. The LC system consists of a binary pump, degasser, column heater, and autosampler. […]

in vitro [4] = type: in vitro ADME; settings: male, human, microsomes
Experimental: as §2
Metabolic stability of the compounds in human liver microsomes was determined by the method described above using pooled human liver microsome preparations from 20 male donors (Corning Life Sciences, Woburn, MA). Assays were conducted as described above and the in vitro half-life of the compounds was calculated. […]

human mu opioid receptor = target: T1, human mu opioid receptor (Homo sapiens, UniProt P35372); type: binding; settings: up to a 10 μM concentration
T1 construct: membrane protein

[5] = target: T2, human delta opioid receptor (Homo sapiens, UniProt P41143); experiment: Competition radioligand binding vs 3H-diprenorphine, delta opioid receptor; settings: up to a 10 μM concentration
T2 construct: membrane protein

[6] = target: T3, human kappa opioid receptor (Homo sapiens, UniProt P41145); experiment: Competition radioligand binding vs 3H-diprenorphine, kappa opioid receptor; settings: up to a 10 μM concentration
T3 construct: membrane protein

CD-1 mice [7] = settings: mouse, in vivo
CD-1 mice [8] = experiment: Post-surgical paw incision, mechanical allodynia (von Frey), morphine anti-nociception; type: in vivo; settings: 1 mg/kg i.v., 24 h, then 3.2 mg/kg morphine s.c.
Experimental: Mechanical thresholds were determined prior to surgery using calibrated von Frey filaments (Ugo Basile, Varese, Italy) with the up-down method and four measurements after the first response per mouse as in Ref.[27] and our previously published work (e.g. Ref.[28]). The mice were housed in a homemade apparatus with Plexiglas walls and ceiling and a wire mesh floor (3-inch wide 4-inch long 3-inch high with 0.25-inch wire mesh). The surgery was then performed by anesthesia with ~ 2% isoflurane in standard air, preparation of the left plantar hind paw with iodine and 70% ethanol, and a 5-mm incision made through the skin and fascia with a no. 11 scalpel. The muscle was elevated with curved forceps leaving the origin and insertion intact, and the muscle was split lengthwise using the scalpel. The wound was then closed with 5–0 polyglycolic acid sutures. Mice were then injected with inhibitor or Vehicle control and left to recover for 24 h. Our intrathecal (i.t.) injection protocol is reported in Refs.[13],[29]; briefly, the injection was made in awake and restrained animals with a 10 μL Hamilton syringe and 30 g needle (5–7 μL volume) between the L5-L6 vertebrae at a 45° angle, with placement validated by tail twitch. Since the injection was made through skin with no incision or other surgical intervention, repeated injection protocols were performed the same way. The next day, the mechanical threshold was again determined as described above. […] . No animals were excluded from these studies.

CCCc1cc2cc(-n3nc(C)c4c3CC(C)(C)CC4=O)cc(N3CCC(O)CC3)c2c(=O)[nH]1 [KUNB106]
naloxone reversibility of inhibitor-enhanced morphine pain relief (CD-1 mice [1]; 1 mg/kg i.v., 2 mg/kg naloxone i.p. 10 min, 3.2 mg/kg morphine s.c., tail flick): fully naloxone-reversible | A50 (morphine anti-nociceptive potency), tail flick, systemic inhibitor (CD-1 mice [1]; 1 mg/kg inhibitor i.v., then 1–5.6 mg/kg morphine s.c., peak %MPE, 95% CI in parentheses): 1.7 (1.1–2.3) mg/kg | effect of higher 10 mg/kg dose on morphine pain relief (tail flick) (CD-1 mice [1]; 10 mg/kg i.v. vs 1 mg/kg i.v., then 3.2 mg/kg morphine s.c.): less benefit than 1 mg/kg | rescue of established morphine tolerance, systemic inhibitor (CD-1 mice [2]): rescued established tolerance | logD at 24 h (physchem): 2.26 | half-life at 1 µM (in vitro [3]): 1.05 h | half-life at 1 µM (in vitro [4]): 2.6 h | binding to mu opioid receptor (competition vs 3H-diprenorphine) (human mu opioid receptor): did not find any binding | binding to delta opioid receptor (competition vs 3H-diprenorphine) [5]: did not find any binding | binding to kappa opioid receptor (competition vs 3H-diprenorphine) [6]: did not find any binding | effect on respiratory activity before and after morphine (CD-1 mice [7]): no impact on respiratory activity before or after morphine

Cc1ccc(Sc2cc(C(=O)N3Cc4ccccc4C3)ccc2O)cc1C [KUNA115]
effect on morphine tail flick anti-nociception, isoform-selective inhibitor i.t. (CD-1 mice [1]; 0.01 nmol i.t., then 3.2 mg/kg morphine s.c.): significant anti-nociceptive elevation | effect of systemic Hsp90α inhibitor on morphine anti-nociception, paw incision (CD-1 mice [8]): completely blocked anti-nociception

From publication PMC11208559 (Scientific Reports, 2024)
